In series [1] the target is human D2 receptor (Homo sapiens (Human), UniProt P14416). Briefly: Radioligand binding ([3H]-spiperone) to human D2 receptor, HEK293 EBNA membranes. The conditions noted are these: HEK293 EBNA cells expressing human D2 receptor. In short, it runs like this:
(§1)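 Membranes from transiently transfected HEK293 EBNA cells (~7.5 μg protein/well) were incubated 1 h at RT with [3H]-spiperone (~0.7 nM for D2, 0.5 nM for D3) and ten compound concentrations (10 μM–0.1 nM) in Tris/NaCl/MgCl2/CaCl2 buffer pH 7.4. Filtration and scintillation counting, nonspecific with 10 μM spiperone; Ki via Cheng-Prusoff.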

In series [2] the target is human D3 receptor (Homo sapiens (Human), UniProt P35462). Briefly: Radioligand binding ([3H]-spiperone) to human D3 receptor, HEK293 EBNA membranes. The settings on record: HEK293 EBNA cells expressing human D3 receptor. In short, it runs like this:
as §1

Series [3] concerns the target human 5-HT2A receptor (Homo sapiens (Human), UniProt P28223). Briefly: Radioligand binding ([3H]-ketanserin) to human 5-HT2A receptor, HEK293 EBNA membranes. The settings on record: HEK293 EBNA cells expressing human 5-HT2A receptor. In short, it runs like this:
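Membranes from HEK293 EBNA cells transiently expressing the human receptor were incubated 1 h at RT with ~0.7 nM (D2) or 0.5 nM (D3) [3H]-spiperone, or 1.1 nM [3H]-ketanserin (5-HT2A), plus ten compound concentrations (10 μM–0.1 nM). Nonspecific binding was set with 10 μM spiperone; Ki was derived from IC50 via Cheng-Prusoff.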

We go through 22 compounds from patent publication US8921397B2, “Benzofurane-piperidine compounds” (Hoffmann-La Roche Inc., priority 2011, dated 2014).

Sequence of human 5-HT2A receptor (P28223 whole entry): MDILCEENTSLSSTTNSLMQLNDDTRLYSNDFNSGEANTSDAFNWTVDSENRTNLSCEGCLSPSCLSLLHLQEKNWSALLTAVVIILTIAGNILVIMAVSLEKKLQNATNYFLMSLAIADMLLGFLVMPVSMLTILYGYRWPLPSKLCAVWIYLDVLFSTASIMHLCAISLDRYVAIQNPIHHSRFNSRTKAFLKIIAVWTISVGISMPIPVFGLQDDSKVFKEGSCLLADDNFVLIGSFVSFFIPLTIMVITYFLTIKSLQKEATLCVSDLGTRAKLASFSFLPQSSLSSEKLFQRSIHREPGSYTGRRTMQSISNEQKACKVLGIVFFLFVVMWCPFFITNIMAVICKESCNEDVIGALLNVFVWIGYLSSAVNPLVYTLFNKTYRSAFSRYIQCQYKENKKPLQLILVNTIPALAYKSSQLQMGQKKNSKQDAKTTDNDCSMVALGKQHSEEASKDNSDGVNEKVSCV
Sequence of human D2 receptor (P14416 whole entry): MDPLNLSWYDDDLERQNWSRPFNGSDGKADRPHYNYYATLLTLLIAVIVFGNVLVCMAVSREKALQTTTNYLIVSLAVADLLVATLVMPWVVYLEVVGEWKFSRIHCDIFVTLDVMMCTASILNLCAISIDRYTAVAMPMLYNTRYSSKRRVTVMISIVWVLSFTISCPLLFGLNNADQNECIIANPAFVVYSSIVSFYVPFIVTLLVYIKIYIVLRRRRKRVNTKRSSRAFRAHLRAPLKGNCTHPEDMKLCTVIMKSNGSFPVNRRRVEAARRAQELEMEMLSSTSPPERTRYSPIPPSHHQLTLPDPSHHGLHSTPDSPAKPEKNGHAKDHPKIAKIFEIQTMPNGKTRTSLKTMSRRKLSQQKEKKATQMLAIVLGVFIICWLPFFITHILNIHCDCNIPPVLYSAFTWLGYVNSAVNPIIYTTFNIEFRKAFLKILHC
Sequence of human D3 receptor (P35462 whole entry): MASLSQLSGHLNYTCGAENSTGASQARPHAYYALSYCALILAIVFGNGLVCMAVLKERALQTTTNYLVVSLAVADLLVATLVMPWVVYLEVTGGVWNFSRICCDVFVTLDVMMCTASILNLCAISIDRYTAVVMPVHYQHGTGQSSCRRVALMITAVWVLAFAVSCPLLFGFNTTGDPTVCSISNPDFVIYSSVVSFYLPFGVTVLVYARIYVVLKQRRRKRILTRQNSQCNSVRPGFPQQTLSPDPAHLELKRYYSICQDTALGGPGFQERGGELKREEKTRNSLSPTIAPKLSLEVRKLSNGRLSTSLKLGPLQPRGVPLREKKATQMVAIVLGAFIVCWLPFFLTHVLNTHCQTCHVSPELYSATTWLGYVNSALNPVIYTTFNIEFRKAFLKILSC

For orientation: Ki means a dissociation constant, usually derived from enzyme kinetics or from competition with a known ligand. A word on the melting point: it is the temperature of the solid-liquid transition. `N#CCC(=O)N[C@H]1CC[C@H](CCN2CCC(c3coc4ccccc34)CC2)CC1` [Example 23, trans-N-{4-[2-(4-Benzofuran-3-yl-piperidin-1-yl)-ethyl]-cyclohexyl}-2-cyano-acetamide] had a melting point of 186 °C. Moreover, the Ki in series [1] amounted to 41.5 nM. Further, the Ki in series [2] amounted to 0.84 nM. Also, in series [3], the Ki stood at 5.96 nM.
In turn, `CC(C)(C)Oc1ccc(C(=O)N[C@H]2CC[C@H](CCN3CCC(c4coc5ccccc45)CC3)CC2)cc1` [Example 71, trans-N-{4-[2-(4-Benzofuran-3-yl-piperidin-1-yl)-ethyl]-cyclohexyl}-4-tert-butoxy-benzamide] displayed a melting point of 186 °C. For the same compound, the Ki in series [1] turned out to be 168 nM. Besides, the Ki in series [2] is 2.14 nM. For the same compound, in series [3], the Ki was 5.56 nM.
In the same order, the values of `Cc1nc(-c2ccc(C(=O)N[C@H]3CC[C@H](CCN4CCC(c5coc6ccccc56)CC4)CC3)cc2)no1` [Example 61, trans-N-{4-[2-(4-Benzofuran-3-yl-piperidin-1-yl)-ethyl]-cyclohexyl}-4-(5-methyl-[1,2,4]oxadiazol-3-yl)-benzamide] are 194 °C, 227 nM, 2.87 nM and 15.1 nM.
`O=C(N[C@H]1CC[C@H](CCN2CCC(c3coc4ccccc34)CC2)CC1)c1ccc(N2CCCCC2)cc1` [Example 51, trans-N-{4-[2-(4-Benzofuran-3-yl-piperidin-1-yl)-ethyl]-cyclohexyl}-4-piperidin-1-yl-benzamide] came in with a melting point of 221 °C. Also, in series [1], the Ki stood at 345 nM. Besides, in series [2], the Ki amounted to 4.39 nM. For the same compound, the Ki in series [3] is 6.85 nM.
The corresponding values for `CC(C)Cc1ccc(C(=O)N[C@H]2CC[C@H](CCN3CCC(c4coc5ccccc45)CC3)CC2)cc1` [Example 80, trans-N-{4-[2-(4-Benzofuran-3-yl-piperidin-1-yl)-ethyl]-cyclohexyl}-4-isobutyl-benzamide] are 190 °C, 292 nM, 4.16 nM and 2.69 nM.
In the same order, the values of `CCc1ccc(C(=O)N[C@H]2CC[C@H](CCN3CCC(c4coc5ccccc45)CC3)CC2)cc1` [Example 81, trans-N-{4-[2-(4-Benzofuran-3-yl-piperidin-1-yl)-ethyl]-cyclohexyl}-4-ethyl-benzamide] are 192 °C, 204 nM, 1.33 nM and 2.53 nM.
In the same order, the values of `O=C(N[C@H]1CC[C@H](CCN2CCC(c3coc4ccccc34)CC2)CC1)c1ccc2ncccc2c1` [Example 73, Quinoline-6-carboxylic acid trans-{4-[2-(4-benzofuran-3-yl-piperidin-1-yl)-ethyl]-cyclohexyl}-amide] are 192 °C, 103 nM, 2.42 nM and 11 nM.
Compound `CC(C)CC(=O)N[C@H]1CC[C@H](CCN2CCC(c3coc4ccccc34)CC2)CC1` [Example 15, trans-N-{4-[2-(4-Benzofuran-3-yl-piperidin-1-yl)-ethyl]-cyclohexyl}-3-methyl-butyramide] yielded a melting point of 182 °C. Also, the Ki in series [1] was determined as 43.5 nM. In addition, the Ki in series [2] came out at 1.94 nM. Further, the Ki in series [3] was found to be 8.65 nM.
The corresponding values for `O=C(N[C@H]1CC[C@H](CCN2CCC(c3coc4ccccc34)CC2)CC1)c1ccc(Cl)cc1Cl` [Example 87, trans-N-{4-[2-(4-Benzofuran-3-yl-piperidin-1-yl)-ethyl]-cyclohexyl}-2,4-dichloro-benzamide] are 187 °C, 38.2 nM, 4.37 nM and 12.3 nM.
In the same order, the values of `O=C(N[C@H]1CC[C@H](CCN2CCC(c3coc4ccccc34)CC2)CC1)c1cnc(N2CCOCC2)cn1` [Example 67, 5-Morpholin-4-yl-pyrazine-2-carboxylic acid trans-{4-[2-(4-benzofuran-3-yl-piperidin-1-yl)-ethyl]-cyclohexyl}-amide] are 202 °C, 106 nM, 7.72 nM and 8.2 nM.
`Cc1cc(CC(=O)N[C@H]2CC[C@H](CCN3CCC(c4coc5ccccc45)CC3)CC2)on1` [Example 10, trans-N-{4-[2-(4-Benzofuran-3-yl-piperidin-1-yl)-ethyl]-cyclohexyl}-2-(3-methyl-isoxazol-5-yl)-acetamide]: the melting point amounted to 165 °C. Besides, the Ki in series [1] came out at 83.6 nM. Moreover, the Ki in series [2] is 0.68 nM. Also, the Ki in series [3] is 7.71 nM.
The corresponding values for `O=C(CC1COC1)N[C@H]1CC[C@H](CCN2CCC(c3coc4ccccc34)CC2)CC1` [Example 76, trans-N-{4-[2-(4-Benzofuran-3-yl-piperidin-1-yl)-ethyl]-cyclohexyl}-2-oxetan-3-yl-acetamide] are 197 °C, 34.2 nM, 1.64 nM and 5.25 nM.
The corresponding values for `CCC(=O)N[C@H]1CC[C@H](CCN2CCC(c3coc4ccccc34)CC2)CC1` [Example 5, trans-N-{4-[2-(4-Benzofuran-3-yl-piperidin-1-yl)-ethyl]-cyclohexyl}-propionamide] are 162 °C, 48.1 nM, 1.23 nM and 4.52 nM.
In the same order, the values of `CCCCC(=O)N[C@H]1CC[C@H](CCN2CCC(c3coc4ccccc34)CC2)CC1` [Example 57, Pentanoic acid trans-{4-[2-(4-benzofuran-3-yl-piperidin-1-yl)-ethyl]-cyclohexyl}-amide] are 167 °C, 65.7 nM, 2.21 nM and 13 nM.
For `CS(=O)(=O)c1ccc(C(=O)N[C@H]2CC[C@H](CCN3CCC(c4coc5ccccc45)CC3)CC2)cc1` [Example 86, trans-N-{4-[2-(4-Benzofuran-3-yl-piperidin-1-yl)-ethyl]-cyclohexyl}-4-methanesulfonyl-benzamide], the melting point came out at 224 °C. Moreover, the Ki in series [1] is 79.5 nM. For the same compound, in series [2], the Ki turned out to be 25 nM. Besides, the Ki in series [3] came out at 5.79 nM.
As for `O=C(Cc1noc2ccccc12)N[C@H]1CC[C@H](CCN2CCC(c3coc4ccccc34)CC2)CC1` [Example 85, trans-2-Benzo[d]isoxazol-3-yl-N-{4-[2-(4-benzofuran-3-yl-piperidin-1-yl)-ethyl]-cyclohexyl}-acetamide], the melting point is 175 °C. The Ki in series [1] turned out to be 245 nM. Further, the Ki in series [2] is 145 nM. Further, in series [3], the Ki is 8.22 nM.
The corresponding values for `CC[C@@H](O)CC(=O)N[C@H]1CC[C@H](CCN2CCC(c3coc4ccccc34)CC2)CC1` [Example 46, (R)-3-Hydroxy-pentanoic acid trans-{4-[2-(4-benzofuran-3-yl-piperidin-1-yl)-ethyl]-cyclohexyl}-amide] are 142 °C, 55.4 nM, 2.49 nM and 8.7 nM.
Compound `CC(C)(C)c1ccc(S(=O)(=O)N[C@H]2CC[C@H](CCN3CCC(c4coc5ccccc45)CC3)CC2)cc1` [Example 88, trans-N-{4-[2-(4-Benzofuran-3-yl-piperidin-1-yl)-ethyl]-cyclohexyl}-4-tert-butyl-benzenesulfonamide] had a melting point of 171 °C. For the same compound, in series [1], the Ki turned out to be 70 nM. Moreover, in series [2], the Ki was found to be 12.1 nM. Besides, the Ki in series [3] is 31.5 nM.
In turn, `CCCC(=O)N[C@H]1CC[C@H](CCN2CCC(c3coc4ccccc34)CC2)CC1` [Example 33, trans-N-{4-[2-(4-Benzofuran-3-yl-piperidin-1-yl)-ethyl]-cyclohexyl}-butyramide] registered a melting point of 155 °C. Moreover, the Ki in series [1] turned out to be 45.3 nM. Besides, the Ki in series [2] was determined as 1.71 nM. Also, the inhibition constant (Ki) in series [3] worked out at 5.53 nM.
The corresponding values for `O=C(CO)N[C@H]1CC[C@H](CCN2CCC(c3coc4ccccc34)CC2)CC1` [Example 11, trans-N-{4-[2-(4-Benzofuran-3-yl-piperidin-1-yl)-ethyl]-cyclohexyl}-2-hydroxy-acetamide] are 161 °C, 46.5 nM, 1.47 nM and 4.92 nM.
The corresponding values for `CC[C@H](O)CC(=O)N[C@H]1CC[C@H](CCN2CCC(c3coc4ccccc34)CC2)CC1` [Example 47, (S)-3-Hydroxy-pentanoic acid trans-{4-[2-(4-benzofuran-3-yl-piperidin-1-yl)-ethyl]-cyclohexyl}-amide] are 140 °C, 33.8 nM, 2.25 nM and 9.1 nM.
In the same order, the values of `O=C(N[C@H]1CC[C@H](CCN2CCC(c3coc4ccccc34)CC2)CC1)C1CCC(C(F)(F)F)CC1` (stereo partly drawn) [Example 79, 4-Trifluoromethyl-cyclohexanecarboxylic acid trans-{4-[2-(4-benzofuran-3-yl-piperidin-1-yl)-ethyl]-cyclohexyl}-amide] are 190 °C, 73 nM, 6.8 nM and 11.2 nM.
